In US6518304B1, “Fungicidal composition” (Sumitomo Chemical Company, Limited, priority 1993, dated 2003):
Read-outs that look alike come from different tables or passages of the source.

How the values were obtained:
[1] = test system: grape downy mildew fungus; assay: Test Example 9: grape downy mildew, foliage application then inoculation; conditions: grape seedling
Description: (§1) Each of plastic pots was filled with sandy loam and sown with grape (Berry A), followed by growing in a greenhouse for 40 days. […] Then, the young seedling was inoculated with a suspension of zoosporangia of grape downy mildew fungus by spraying. After the inoculation, the young seedling was allowed to stand overnight at 23° C. and a high humidity and then grown in a greenhouse for 7 days, after which the infection rate (%) was investigated.

[2] = test system: gray mold fungi tolerant to benzimidazole type fungicidal compounds; assay: Test Example 12: cucumber gray mold, benzimidazole-tolerant (resistant) fungus; conditions: cucumber seedling
Description: Each of plastic pots was filled with sandy loam and sown with cucumber (Sagamihanjiro), followed by growing in a greenhouse for 14 days. […] After air-drying, each of gray mold fungi sensitive and tolerant, respectively, to benzimidazole type fungicidal compounds was inoculated on the surfaces of leaves of the young seedling, and the young seedling was grown in the dark at 10° C. and a high humidity for 4 days, after which the infection rate (%) was investigated.

[3] = test system: apple scab fungus; assay: Test Example 13: apple scab, foliage application then inoculation; format: in vivo, Venturia inaequalis; conditions: apple seedling
[4] = test system: gray mold fungi sensitive to benzimidazole type fungicidal compounds; assay: Test Example 12: cucumber gray mold, benzimidazole-sensitive fungus; conditions: cucumber seedling
Description: Each of plastic pots was filled with sandy loam and sown with cucumber (Sagamihanjiro), followed by growing in a greenhouse for 14 days. A wettable powder of test agents prepared according to Formulation Example 41 was diluted to a predetermined concentration with water, and foliage application of the dilution was carried out so as to adhere the dilution sufficiently to the surfaces of leaves of the grown cucumber young seedling. After air-drying, each of gray mold fungi sensitive and tolerant, respectively, to benzimidazole type fungicidal compounds was inoculated on the surfaces of leaves of the young seedling, and the young seedling was grown in the dark at 10° C. and a high humidity for 4 days, after which the infection rate (%) was investigated.

[5] = test system: apple scab fungus; assay: Test Example 8: apple scab, foliage application then inoculation; format: in vivo, Venturia inaequalis; conditions: apple seedling
[6] = test system: grape downy mildew fungus; assay: Test Example 6: grape downy mildew, foliage application then inoculation; conditions: grape seedling
Description: as §1

[7] = test system: tomato late blight fungus; format: in vivo, Phytophthora infestans; conditions: tomato seedling
[8] = test system: gray mold fungus; assay: Test Example 4: cucumber gray mold, foliage application after inoculation; conditions: cucumber seedling, applied after inoculation
Description: Each of plastic pots was filled with sandy loam and sown with cucumber (Sagamihanjiro), followed by growing in a greenhouse for 14 days. Gray mold fungus was inoculated on the surfaces of leaves of the grown cucumber young seedling, and the young seedling was grown in the dark at 10° C. and a high humidity for 2 days and then at a temperature of 23° C. for 3 days. A wettable powder of test agents prepared according to Formulation Example 11 was diluted to a predetermined concentration with water, and foliage application of the dilution was carried out so as to adhere the dilution sufficiently to the surfaces of leaves of the cucumber young seedling. After the spraying, the young seedling was grown in the dark at 10° C. and a high humidity for 3 days, and then the infection rate (%) was investigated.

[9] = test system: grape powdery mildew fungus (Uncinula necator); assay: Test Example 14: grape powdery mildew, spray then inoculation; format: in vivo; conditions: grape plant, 3 weeks at 24° C.
[10] = test system: grape downy mildew fungus (Plasmopara viticola); assay: Test Example 2: grape downy mildew, spray then inoculation, infection rate; format: in vivo; conditions: grape plant, 1 week at 24° C.
Description: A grape plant (cultivar: Berry A) was planted in each pot and was sprayed with a sufficient volume of a dilution with a predetermined concentration of a wettable powder obtained according to Formulation Example 5, after the plant put out a fourth leaf.

[11] = test system: grape powdery mildew fungus (Uncinula necator); assay: Test Example 16: grape powdery mildew, spray then inoculation; format: in vivo; conditions: grape plant, 3 weeks at 24° C.
[12] = test system: tomato late blight fungus (Phytophthora infestans); format: in vivo; conditions: tomato plant, 1 week at 24° C.
[13] = test system: gray mold fungi sensitive to benzimidazole type fungicidal compounds; assay: Test Example 17: cucumber gray mold, benzimidazole-sensitive fungus; conditions: cucumber seedling
Description: (§2) Each of plastic pots was filled with sandy loam and sown with cucumber (Sagamihanjiro), followed by growing in a greenhouse for 14 days. A wettable powder of test agents prepared according to Formulation Example 59 was diluted to a predetermined concentration with water, and foliage application of the dilution was carried out so as to adhere the dilution sufficiently to the surfaces of leaves of the grown cucumber young seedling. After air-drying, each of gray mold fungi sensitive and tolerant, respectively, to benzimidazole type fungicidal compounds was inoculated on the surfaces of leaves of the young seedling, and the young seedling was grown in the dark at 10° C. and a high humidity for 4 days, after which the infection rate (%) was investigated.

[14] = test system: tomato late blight fungus (Phytophthora infestans); format: in vivo; conditions: tomato plant, 1 week at 24° C.; remark: listed apart in the source
[15] = test system: tomato late blight fungus; format: in vivo, Phytophthora infestans; conditions: tomato seedling; remark: listed apart in the source
[16] = test system: gray mold fungus; assay: Test Example 11: cucumber gray mold, foliage application before inoculation; conditions: cucumber seedling
Description: Each of plastic pots was filled with sandy loam and sown with cucumber (Sagamihanjiro), followed by growing in a greenhouse for 14 days. A wettable powder of test agents prepared according to Formulation Example 35 was diluted to a predetermined concentration with water, and foliage application of the dilution was carried out so as to adhere the dilution sufficiently to the surfaces of leaves of the grown cucumber young seedling. After air-drying, gray mold fungus was inoculated on the surfaces of leaves of the young seedling, and the young seedling was grown in the dark at 10° C. and a high humidity for 4 days, after which the infection rate (%) was investigated.

[17] = test system: gray mold fungus; assay: Test Example 3: cucumber gray mold, foliage application before inoculation; conditions: cucumber seedling, applied before inoculation, 4 days
Description: Each of plastic pots was filled with sandy loam and sown with cucumber (Sagamihanjiro), followed by growing in a greenhouse for 14 days. A wettable powder of test agents prepared according to Formulation Example 11 was diluted to a predetermined concentration with water, and foliage application of the dilution was carried out so as to adhere the dilution sufficiently to the surfaces of leaves of the grown cucumber young seedling. After air-drying, gray mold fungus was inoculated on the surfaces of leaves of the young seedling, and the young seedling was grown in the dark at 10° C. and a high humidity for 4 days, after which the infection rate (%) was investigated.

[18] = test system: grape downy mildew fungus; assay: Test Example 7: grape downy mildew, foliage application then inoculation; conditions: grape seedling
Description: as §1

[19] = test system: gray mold fungi tolerant to benzimidazole type fungicidal compounds; assay: Test Example 17: cucumber gray mold, benzimidazole-tolerant (resistant) fungus; conditions: cucumber seedling
Description: as §2

## COC(=O)[C@H](C)N(C(=O)Cc1ccccc1)c1c(C)cccc1C [Benalaxyl, methyl N-(2,6-dimethylphenyl)-N-(phenylacetyl)alaninate]
[1]; 1 ppm
  Infection rate (%): 25%

## CCCCNC(=O)n1c(NC(=O)OC)nc2ccccc21 [Benomyl, methyl 1-(butylcarbamoyl)-2-benzimidazole-carbamate, reference compound]
[2]; 10 ppm
  Infection rate (%) Resistant fungus: 100%
[3]; 20 ppm
  Infection rate (%): 25%
[4]; 10 ppm
  Infection rate (%) Sensitive fungus: 20%

## O=C1C2CC=CCC2C(=O)N1SC(Cl)(Cl)Cl (stereo not drawn) [Captan, 1,2,3,6-tetrahydro-N-(trichloromethylthio)phthalimide, reference compound]
[5]; 300 ppm
  Infection rate (%): 20%

## N#Cc1c(Cl)c(Cl)c(Cl)c(C#N)c1Cl [Chlorothalonil, tetrachloroisophthalonitrile, reference compound]
[6]; 30 ppm
  Infection rate (%): 20%
[7]; 40 ppm
  Infection rate (%): 20%

## CON=C(C(=O)OC)c1ccccc1COc1ccccc1C [Compound (Ia), methyl α-methoxyimino-2-[(2-methylphenoxy)methyl]phenylacetate]
[2]; 10 ppm
  Infection rate (%) Resistant fungus: 30%
[8]; 10 ppm
  Infection rate (%): 30%
[3]; 1 ppm
  Infection rate (%): 20%
[9]; 1 ppm
  Infection rate (%): 20%
[10]; 10 ppm
  Infection rate (%): 30%
[6]; 5 ppm
  Infection rate (%): 20%
[4]; 10 ppm
  Infection rate (%) Sensitive fungus: 30%
[11]; 10 ppm
  Infection rate (%): 30%
[5]; 0.8 ppm
  Infection rate (%): 20%
[12]; 10 ppm
  Infection rate (%): 25%
[1]; 20 ppm
  Infection rate (%): 25%
[7]; 50 ppm
  Infection rate (%): 25%
[13]; 10 ppm
  Infection rate (%) Sensitive fungus: 30%
[14]; 10 ppm
  Infection rate (%): 25%
[15]; 100 ppm
  Infection rate (%): 25%
[16]; 10 ppm
  Infection rate (%): 30%
[17]; 10 ppm
  Infection rate (%): 30%
[18]; 10 ppm
  Infection rate (%): 20%
[19]; 10 ppm
  Infection rate (%) Resistant fungus: 30%

## CNC(=O)C(=NOC)c1ccccc1COc1cccc(Cl)c1 [Compound (Ic), N-methyl-α-methoxyimino-2-[(3-chlorophenoxy)methyl]phenylacetamide]
[2]; 200 ppm
  Infection rate (%) Resistant fungus: 20%
[8]; 200 ppm
  Infection rate (%): 20%
[3]; 1 ppm
  Infection rate (%): 30%
[9]; 1 ppm
  Infection rate (%): 20%
[10]; 10 ppm
  Infection rate (%): 25%
[6]; 5 ppm
  Infection rate (%): 25%
[4]; 200 ppm
  Infection rate (%) Sensitive fungus: 20%
[11]; 10 ppm
  Infection rate (%): 25%
[5]; 5 ppm
  Infection rate (%): 25%
[12]; 10 ppm
  Infection rate (%): 25%
[1]; 100 ppm
  Infection rate (%): 20%
[7]; 40 ppm
  Infection rate (%): 20%
[13]; 200 ppm
  Infection rate (%) Sensitive fungus: 20%
[14]; 10 ppm
  Infection rate (%): 25%
[15]; 40 ppm
  Infection rate (%): 20%
[16]; 200 ppm
  Infection rate (%): 20%
[17]; 200 ppm
  Infection rate (%): 20%
[18]; 10 ppm
  Infection rate (%): 25%
[19]; 200 ppm
  Infection rate (%) Resistant fungus: 20%

## CNC(=O)C(=NOC)c1ccccc1COc1ccc(Cl)cc1Cl [Compound (Id), N-methyl-α-methoxyimino-2-[(2,4-dichlorophenoxy)methyl]phenylacetamide]
[2]; 200 ppm
  Infection rate (%) Resistant fungus: 20%
[8]; 200 ppm
  Infection rate (%): 20%
[3]; 5 ppm
  Infection rate (%): 20%
[9]; 1 ppm
  Infection rate (%): 25%
[10]; 10 ppm
  Infection rate (%): 25%
[6]; 5 ppm
  Infection rate (%): 25%
[4]; 200 ppm
  Infection rate (%) Sensitive fungus: 20%
[11]; 10 ppm
  Infection rate (%): 25%
[5]; 5 ppm
  Infection rate (%): 25%
[12]; 10 ppm
  Infection rate (%): 25%
[1]; 40 ppm
  Infection rate (%): 20%
[7]; 40 ppm
  Infection rate (%): 20%
[13]; 200 ppm
  Infection rate (%) Sensitive fungus: 20%
[14]; 10 ppm
  Infection rate (%): 25%
[15]; 40 ppm
  Infection rate (%): 20%
[16]; 200 ppm
  Infection rate (%): 20%
[17]; 200 ppm
  Infection rate (%): 20%
[18]; 10 ppm
  Infection rate (%): 20%
[19]; 200 ppm
  Infection rate (%) Resistant fungus: 20%

## [Cl-].[Cu+2].[Cu+2].[OH-].[OH-].[OH-] [Copper oxychloride, reference compound]
[11]; 500 ppm
  Infection rate (%): 30%
[14]; 500 ppm
  Infection rate (%): 25%

## [Cu+2].[O-]c1cccc2cccnc12.[O-]c1cccc2cccnc12 [Copper oxyquinolinolate, copper oxyquinolinolate (8-hydroxyquinolinate), reference compound]
[11]; 200 ppm
  Infection rate (%): 25%
[14]; 50 ppm
  Infection rate (%): 25%

## CCNC(=O)NC(=O)C(C#N)=NOC [Cymoxanil, 2-cyano-N-[ethylaminocarbonyl]-2-(methoxyimino)acetamide]
[1]; 40 ppm
  Infection rate (%): 20%

## CCOc1ccc(NC(=O)OC(C)C)cc1OCC [Diethofencarb, isopropyl 3,4-diethoxyphenylcarbamate, reference compound]
[13]; 10 ppm
  Infection rate (%) Sensitive fungus: 100%
[19]; 10 ppm
  Infection rate (%) Resistant fungus: 20%

## O=[N+]([O-])c1cc(C(F)(F)F)c(Cl)c([N+](=O)[O-])c1Nc1ncc(C(F)(F)F)cc1Cl [Fluazinam, 3-chloro-N-(3-chloro-5-trifluoromethyl-2-pyridyl)-α,α,α-trifluoro-2,6-dinitro-p-toluidine, reference compound]
[16]; 1 ppm
  Infection rate (%): 25%

## N#Cc1c[nH]cc1-c1cccc2c1OC(F)(F)O2 [Fludioxonil, 4-(2,2-difluoro-1,3-benzodioxol-4-yl)-1H-pyrrole-3-carbonitrile, reference compound]
[16]; 0.5 ppm
  Infection rate (%): 20%

## O=C1c2ccccc2C(=O)N1SC(Cl)(Cl)Cl [Folpet, N-(trichloromethylthio)phthalimide, reference compound]
[18]; 200 ppm
  Infection rate (%): 20%

## CCO[PH](=O)O [Fosetyl aluminum, ethyl hydrogenphosphonate]
[1]; 100 ppm
  Infection rate (%): 25%

## CC#Cc1cc(C)nc(Nc2ccccc2)n1 [Mepanipyrim, 2-anilino-4-methyl-6-(1-propynyl)pyrimidine, reference compound]
[16]; 5 ppm
  Infection rate (%): 20%

## COCC(=O)N(c1c(C)cccc1C)[C@@H](C)C(=O)OC [Metalaxyl, methyl N-(2,6-dimethylphenyl)-N-(methoxyacetyl)-alaninate, reference compound]
[1]; 1 ppm
  Infection rate (%): 20%
[15]; 5 ppm
  Infection rate (%): 20%

## COCC(=O)N(c1c(C)cccc1C)N1CCOC1=O [Oxadixyl, 2-methoxy-N-(2-oxo-1,3-oxazolidin-3-yl)aceto-2′,6′-xylidide]
[1]; 5 ppm
  Infection rate (%): 20%

## CC12CC1(C)C(=O)N(c1cc(Cl)cc(Cl)c1)C2=O (stereo not drawn) [Procymidone, N-(3,5-dichlorophenyl)-1,2-dimethylcyclopropane-1,2-dicarboxyimide, reference compound]
[8]; 10 ppm
  Infection rate (%): 25%
[17]; 10 ppm
  Infection rate (%): 25%

## Cc1cc(C)nc(Nc2ccccc2)n1 [Pyrimetanil, 2-anilino-4,6-dimethylpyrimidine, reference compound]
[16]; 10 ppm
  Infection rate (%): 20%

## S1SSSSSSS1 [Sulfur, sulfur, reference compound]
[9]; 500 ppm
  Infection rate (%): 20%

## c1ccc2[nH]c(-c3cscn3)nc2c1 [Thiabendazole, 2-(4′-thiazolyl)benzimidazole, reference compound]
[2]; 30 ppm
  Infection rate (%) Resistant fungus: 100%
[4]; 30 ppm
  Infection rate (%) Sensitive fungus: 25%

## COC(=O)NC(=S)Nc1ccccc1NC(=S)NC(=O)OC [Thiophanate-methyl, 1,2-bis(3-methoxycarbonyl-2-thioureido)benzene, reference compound]
[2]; 10 ppm
  Infection rate (%) Resistant fungus: 100%
[3]; 10 ppm
  Infection rate (%): 20%
[4]; 10 ppm
  Infection rate (%) Sensitive fungus: 25%

## Mancozeb [reference compound]
[10]; 50 ppm
  Infection rate (%): 25%
[12]; 50 ppm
  Infection rate (%): 25%
